According to patent US20100298141A1, “SUBSTITUTED PYRIDINE N-OXIDE HERBICIDES” (E. I. DU PONT DE NEMOURS AND COMPANY, priority 2007, published 2010):

How the values were obtained:
[1] = tested on: Italian ryegrass; assay: Test F preemergence test; assay type: in vivo, Lolium multiflorum; conditions: scale 0 to 100
Summary of the method: (§1)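 Test chemicals were formulated in a non-phytotoxic solvent mixture with surfactant and applied preemergence to planted seeds or postemergence to sugarcane plants. Plants were kept in a greenhouse for 14 to 21 days, then visually evaluated against controls.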

[2] = tested on: broadleaf signalgrass; assay: Test F preemergence test; assay type: in vivo, Brachiaria platyphylla; conditions: scale 0 to 100
Summary of the method: as §1

[3] = tested on: annual bluegrass; assay: Test F preemergence test; assay type: in vivo, Poa annua; conditions: scale 0 to 100
Summary of the method: as §1

[4] = tested on: purple nutsedge; assay: Test F preemergence test; assay type: in vivo, Cyperus rotundus; conditions: scale 0 to 100
Summary of the method: as §1

[5] = tested on: naked crabgrass; assay: Test F preemergence test; assay type: in vivo, Digitaria nuda; conditions: scale 0 to 100
Summary of the method: as §1

[6] = tested on: common ragweed; assay: Test F preemergence test; assay type: in vivo, Ambrosia elation; conditions: scale 0 to 100
Summary of the method: as §1

[7] = tested on: goosegrass; assay: Test F preemergence test; assay type: in vivo, Eleusine indica; conditions: scale 0 to 100
Summary of the method: as §1

[8] = tested on: Surinam grass; assay: Test F preemergence test; assay type: in vivo, Brachiaria decumbens; conditions: scale 0 to 100
Summary of the method: as §1

[9] = tested on: pitted morningglory; assay: Test F preemergence test; assay type: in vivo, Ipomoea lacunosa; conditions: scale 0 to 100
Summary of the method: as §1

[10] = tested on: rice; assay: Test C flooded paddy test; assay type: in vivo, Oryza sativa; conditions: Flood
Summary of the method: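 Visual injury ratings against untreated controls, taken 13 to 15 days after compound was added to paddy water standing 3 cm above the soil.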

[11] = tested on: kochia; assay: Test F preemergence test; assay type: in vivo, Kochia scoparia; conditions: scale 0 to 100
Summary of the method: as §1

[12] = tested on: large crabgrass; assay: Test F preemergence test; assay type: in vivo, Digitaria sanguinalis; conditions: scale 0 to 100
Summary of the method: as §1

[13] = tested on: johnsongrass; assay: Test F preemergence test; assay type: in vivo, Sorghum halepense; conditions: scale 0 to 100
Summary of the method: as §1

[14] = tested on: Virginia dayflower; assay: Test F preemergence test; assay type: in vivo, Commelina virginica; conditions: scale 0 to 100
Summary of the method: as §1

[15] = tested on: morningglory; assay: Test C pre-/postemergence test; assay type: in vivo, Ipomoea coccinea; conditions: Preemergence
Summary of the method: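 Seeds were planted and treated preemergence with test chemical in a non-phytotoxic solvent mixture containing surfactant. Postemergence applications of the same formulation went onto plants 2 to 18 cm tall (1- to 4-leaf stage). A dash marks no test result.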

[16] = tested on: bermudagrass; assay: Test F preemergence test; assay type: in vivo, Cynodon dactylon; conditions: scale 0 to 100
Summary of the method: as §1

[17] = 31 g ai/ha, scale 0 to 100 (0 no effect, 100 complete control)

How did the “Ryegrass, Italian plant response rating” value ([1]; 62 g ai/ha, Preemergence) turn out when `Cc1cc[n+]([O-])c(S(=O)(=O)C(Cl)c2c(C(F)(F)F)nn(C)c2Cl)c1` (racemic) [Compound 22] was run?
Its value is 70.

And the “Ryegrass, Italian plant response rating” value ([1]; 125 g ai/ha, preemergence)?
Its value is 70.

And the “Plant response rating, Ryegrass, Italian” value ([1]; Preemergence, 16 g ai/ha)?
Its value is 0.

What about the “Plant response rating, Ryegrass, Italian” value ([1]; Preemergence, 31 g ai/ha) of the same compound?
The value was 20.

And the “Signalgrass plant response rating” value ([2]; 62 g ai/ha, Preemergence)?
The value was 60.

What about the “Signalgrass plant response rating” value ([2]; 125 g ai/ha, preemergence) of the same compound?
The value was 80.

And the “Plant response rating, Signalgrass” value ([2]; Preemergence, 31 g ai/ha)?
The value was 50.

And the “Bluegrass plant response rating” value ([3]; 62 g ai/ha, Preemergence)?
Its value is 30.

What about the “Bluegrass plant response rating” value ([3]; 125 g ai/ha, preemergence) of the same compound?
The value was 50.

And the “Plant response rating, Bluegrass” value ([3]; Preemergence, 16 g ai/ha)?
Its value is 0.

What about the “Plant response rating, Bluegrass” value ([3]; Preemergence, 31 g ai/ha) of the same compound?
The value was 0.

And the “Purple Nutsedge plant response rating” value ([4]; 62 g ai/ha, Preemergence)?
Its value is 50.

What about the “Purple Nutsedge plant response rating” value ([4]; 125 g ai/ha, preemergence) of the same compound?
The value was 60.

What about the “Plant response rating, Purple Nutsedge” value ([4]; Preemergence, 16 g ai/ha) of the same compound?
The value was 0.

And the “Plant response rating, Purple Nutsedge” value ([4]; Preemergence, 31 g ai/ha)?
The value was 15.

What about the “Crabgrass, Naked plant response rating” value ([5]; 62 g ai/ha, Preemergence) of the same compound?
Its value is 80.

What about the “Crabgrass, Naked plant response rating” value ([5]; 125 g ai/ha, preemergence) of the same compound?
Its value is 100.

What about the “Plant response rating, Crabgrass, Naked” value ([5]; Preemergence, 16 g ai/ha) of the same compound?
Its value is 40.

What about the “Plant response rating, Crabgrass, Naked” value ([5]; Preemergence, 31 g ai/ha) of the same compound?
The value was 75.

And the “Ragweed plant response rating” value ([6]; 62 g ai/ha, Preemergence)?
Its value is 50.

And the “Ragweed plant response rating” value ([6]; 125 g ai/ha, preemergence)?
The value was 80.

What about the “Plant response rating, Ragweed” value ([6]; Preemergence, 16 g ai/ha) of the same compound?
Its value is 0.

What about the “Plant response rating, Ragweed” value ([6]; Preemergence, 31 g ai/ha) of the same compound?
Its value is 0.

What about the “Goosegrass plant response rating” value ([7]; 62 g ai/ha, Preemergence) of the same compound?
Its value is 80.

And the “Goosegrass plant response rating” value ([7]; 125 g ai/ha, preemergence)?
Its value is 98.

And the “Plant response rating, Goosegrass” value ([7]; Preemergence, 16 g ai/ha)?
The value was 65.

What about the “Plant response rating, Goosegrass” value ([7]; Preemergence, 31 g ai/ha) of the same compound?
Its value is 65.

What about the “Surinam Grass plant response rating” value ([8]; 62 g ai/ha, Preemergence) of the same compound?
Its value is 65.

What about the “Surinam Grass plant response rating” value ([8]; 125 g ai/ha, preemergence) of the same compound?
The value was 90.

And the “Plant response rating, Surinam Grass” value ([8]; Preemergence, 31 g ai/ha)?
The value was 0.

What about the “Morningglory plant response rating” value ([9]; 62 g ai/ha, Preemergence) of the same compound?
Its value is 0.

What about the “Morningglory plant response rating” value ([9]; 125 g ai/ha, preemergence) of the same compound?
Its value is 20.

What about the “Plant response rating, Morningglory” value ([9]; Preemergence, 16 g ai/ha) of the same compound?
The value was 0.

And the “Plant response rating, Morningglory” value ([9]; Preemergence, 31 g ai/ha)?
Its value is 0.

And the “Plant response rating, Rice” value [10, 17]?
Its value is 0.

What about the “Plant response rating, Rice” value ([10]; 62 g ai/ha, scale 0 to 100, 0 no effect, 100 complete control, 13 to 15 days) of the same compound?
Its value is 30.

What about the “Plant response rating, Rice” value ([10]; 125 g ai/ha, scale 0 to 100, 0 no effect, 100 complete control, 13 to 15 days) of the same compound?
Its value is 80.

What about the “Plant response rating, Rice” value ([10]; 250 g ai/ha, scale 0 to 100 (0 no effect, 100 complete control)) of the same compound?
Its value is 80.

And the “Kochia plant response rating” value ([11]; 62 g ai/ha, Preemergence)?
Its value is 100.

And the “Kochia plant response rating” value ([11]; 125 g ai/ha, preemergence)?
The value was 98.

What about the “Plant response rating, Kochia” value ([11]; Preemergence, 16 g ai/ha) of the same compound?
The value was 98.

What about the “Plant response rating, Kochia” value ([11]; Preemergence, 31 g ai/ha) of the same compound?
The value was 100.

And the “Crabgrass, Large plant response rating” value ([12]; 62 g ai/ha, Preemergence)?
Its value is 70.

And the “Crabgrass, Large plant response rating” value ([12]; 125 g ai/ha, preemergence)?
The value was 70.

And the “Plant response rating, Crabgrass, Large” value ([12]; Preemergence, 16 g ai/ha)?
Its value is 0.

And the “Plant response rating, Crabgrass, Large” value ([12]; Preemergence, 31 g ai/ha)?
Its value is 50.

And the “Johnsongrass plant response rating” value ([13]; 62 g ai/ha, Preemergence)?
Its value is 60.

What about the “Johnsongrass plant response rating” value ([13]; 125 g ai/ha, preemergence) of the same compound?
Its value is 100.

And the “Plant response rating, Johnsongrass” value ([13]; Preemergence, 16 g ai/ha)?
The value was 0.

And the “Plant response rating, Johnsongrass” value ([13]; Preemergence, 31 g ai/ha)?
Its value is 50.

What about the “Dayflower plant response rating” value ([14]; 62 g ai/ha, Preemergence) of the same compound?
Its value is 40.

And the “Dayflower plant response rating” value ([14]; 125 g ai/ha, preemergence)?
The value was 100.

And the “Plant response rating, Dayflower” value ([14]; Preemergence, 16 g ai/ha)?
The value was 0.

And the “Plant response rating, Dayflower” value ([14]; Preemergence, 31 g ai/ha)?
The value was 0.

What about the “Morningglory plant response rating” value ([15]; 62 g ai/ha, scale 0 to 100) of the same compound?
Its value is 0.

And the “Plant response rating, Morningglory” value [15, 17]?
Its value is 0.

And the “Bermudagrass plant response rating” value ([16]; 62 g ai/ha, Preemergence)?
Its value is 80.

And the “Bermudagrass plant response rating” value ([16]; 125 g ai/ha, preemergence)?
The value was 90.

And the “Plant response rating, Bermudagrass” value ([16]; Preemergence, 16 g ai/ha)?
The value was 0.

And the “Plant response rating, Bermudagrass” value ([16]; Preemergence, 31 g ai/ha)?
Its value is 35.
